Counter-ions that a name gives are not always drawn.
What follows are compounds tested on Acinetobacter baumannii ATCC17961 (assay: Antimicrobial susceptibility testing: 90% growth inhibitory concentration (IC90) determination). Conditions: 90% growth inhibitory concentration; Iso-Sensitest broth, optical density at 600 nm over 16h, 35±2° C.; read-out: AB ATCC 17961 IC90.
Type: cell-based
Description: Antimicrobial Susceptibility Testing:
90% Growth Inhibitory Concentration (IC90) Determination
The in vitro antimicrobial activity of the compounds was determined according to the following procedure:
The assay used a 10-points Iso-Sensitest broth medium to measure quantitatively the in vitro activity of the compounds against Acinetobacter baumannii ATCC17961 or ATCC17978.
Stock compounds in DMSO were serially twofold diluted (e.g. range from 50 to 0.097 μM final concentration) in 384 wells microtiter plates and inoculated with 49 μl the bacterial suspension in Iso-Sensitest medium to have a final cell concentration of ˜5×10^(5) CFU/ml in a final volume/well of 50 ul/well. Microtiter plates were incubated at 35±2° C.
Bacterial cell growth was determined with the measurement of optical density at λ=600 nm each 20 minutes over a time course of 16h. Growth inhibition was calculated during the logarithmic growth of the bacterial cells with determination of the concentration inhibiting 50% (IC50) and 90% (IC90) of the growth.
Table 2 provides the 90% growth inhibitory concentrations (IC90) in micromoles per liter of the compounds of present invention obtained against the strain Acinetobacter baumannii ATCC17961.
With `COc1ccc(-c2cnc3c(Nc4ccc(S(C)(=O)=NCCCNC(=O)[C@H]5C[C@H](O)CN5)c(C)c4)nccn23)c(F)c1F` (mixture of isomers) [Example 32, rac-(2R,4S)—N-(3-(((4-((3-(2,3-difluoro-4-methoxyphenyl)imidazo[1,2-a]pyrazin-8-yl)amino)-2-methylphenyl)(methyl)oxo)-l6-sulfaneylidene)amino)propyl)-4-hydroxypyrrolidine-2-carboxamide dihydrochloride] the IC90 was 0.17 µM. Compound `CN=S(C)(=O)c1ccc(Nc2nccn3c(-c4ccc(OC)c(F)c4F)cnc23)cc1C` (stereo not shown) [Example 22, 3-(2,3-difluoro-4-methoxy-phenyl)-N-[4-(N,S-dimethylsulfonimidoyl)-3-methyl-phenyl]imidazo[l,2-a]pyrazin-8-amine] has an IC90 of 0.084 µM. For `CN=S(C)(=O)c1ccc(Nc2nccn3c(-c4ccc(OC)c(F)c4F)cnc23)cc1C` (stereo not shown) [Example 66, 3-(2,3-difluoro-4-methoxyphenyl)-N-(4-(N,S-dimethylsulfonimidoyl)-3-methylphenyl)imidazo[1,2-a]pyrazin-8-amine], the IC90 was 0.16 µM. Work on `CCS(=O)(=NC)c1ccc(Nc2nccn3c(-c4ccc(OC)c(F)c4F)cnc23)cc1Cl` (stereo not shown) [Example 24, (2-chloro-4-((3-(2,3-difluoro-4-methoxyphenyl)imidazo[1,2-a]pyrazin-s-yl)amino)phenyl)(ethyl)(methylimino)-l6-sulfanone] yielded an IC90 of 0.17 µM.

Same assay, conditions: Acinetobacter baumannii, ATCC17961, 16 h, 90% growth inhibitory concentration; Iso-Sensitest broth, optical density at 600 nm over 16h, 35±2° C.; read-out: AB ATCC 17961 IC90
In the case of `CCc1cc(Nc2nccn3c(-c4ccc(OC)c(F)c4F)cnc23)ccc1C[N+](C)(C)C` [Example 123, [4-[[3-(2,3-difluoro-4-methoxy-phenyl)imidazo[1,2-a]pyrazin-8-yl]amino]-2-ethyl-phenyl]methyl-trimethyl-ammonium], the IC90 is reported as 0.58 µM. For `COc1ccc(-c2cnc3c(Nc4ccc(Cn5ccnc5)c(C)c4)nccn23)c(F)c1F` [Example 118, 3-(2,3-difluoro-4-methoxy-phenyl)-N-[4-(imidazol-1-ylmethyl)-3-methyl-phenyl]imidazo[1,2-a]pyrazin-8-amine], the IC90 was 0.12 µM. In the case of `CN=S(C)(=O)c1ccc(Nc2nccn3c(-c4ccc(OC)c(F)c4F)cnc23)cc1F` (stereo not shown) [Example 26, (4-((3-(2,3-difluoro-4-methoxyphenyl)imidazol[1,2-a]pyrazin-4-yl)amino)-2-fluorophenyl)(methyl)(methylimino)-l6-sulfanone], the IC90 is reported as 0.14 µM. Compound `O=C1NCCN1c1ccc(Nc2nccn3c(-c4ccc(OC(F)F)cc4)cnc23)cc1` [Example 3, 1-[4-[[3-[4-(difluoromethoxy)phenyl]imidazo[1,2-a]pyrazin-8-yl]amino]phenyl]imidazolidin-2-one] has an IC90 of 0.72 µM. `COc1ccc(-c2cnc3c(Nc4ccc(S(=O)(=O)NCCOCCN(C)C)c(Cl)c4)nccn23)c(F)c1F` [Example 97] gave an IC90 of 0.18 µM. `Cc1cc(Nc2nccn3c(-c4ccc(Oc5ccccn5)c(F)c4F)cnc23)ccc1OCCOCCOCCN` [Example 122, N-(4-(2-(2-(2-aminoethoxy)ethoxy)ethoxy)-3-methylphenyl)-3-(2,3-difluoro-4-(pyridin-2-yloxy)phenyl)imidazo[1,2-a]pyrazin-8-amine] showed an IC90 of 0.65 µM. `COc1ccc(-c2cnc3c(Nc4ccc(N5CCCC5=O)cc4)nccn23)cc1F` [Example 48, 1-(4-((3-(3-fluoro-4-methoxyphenyl)imidazo[1,2-a]pyrazin-8-yl)amino)phenyl)pyrrolidin-2-one] was tested, and the IC90 was 0.076 µM. Work on `CCc1cc(Nc2nccn3c(-c4ccc(OC)c(F)c4F)cnc23)ccc1S(=O)(=O)N1CCN(C(=O)[C@@H]2CCNC2)CC1` [Example 107, (R)-(4-(4-((3-(2,3-difluoro-4-methoxyphenyl)imidazo[1,2-a]pyrazin-8-yl)amino)-2-ethylphenyl)sulfonyl) piperazin-1-yl)(pyrrolidin-3-yl)methanone hydrochloride] yielded an IC90 of 0.2 µM. Compound `CCc1cc(Nc2nccn3c(-c4ccc(OC)c(F)c4F)cnc23)ccc1S(=O)(=O)N1CCN(C(=O)C2CCNCC2)CC1` [Example 108, (4-((4-((3-(2,3-difluoro-4-methoxyphenyl)imidazo[1,2-a]pyrazin-8-ylamino)-2-ethylphenyl)sulfonyl)piperazin-1-yl)(piperidin-4-yl)methanone hydrochloride] has an IC90 of 0.22 µM. Compound `CN=S(C)(=O)c1ccc(Nc2nccn3c(-c4ccc(OCC#N)c(F)c4F)cnc23)cc1C` (stereo not shown) [Example 25, 2-(4-(8-((4-(N,S-dimethylsulfonimidoyl)-3-methylphenyl)amino)imidazo[1,2-a]pyrazin-3-yl)-2,3-difluorophenoxy) acetonitrile] has an IC90 of 0.048 µM. In the case of `O=C1CCCN1c1ccc(Nc2nccn3c(-c4ccc(OC(F)F)cc4)cnc23)cc1Cl` [Example 94, 1-(2-chloro-4-((3-(4-(difluoromethoxy)phenyl)imidazo[1,2-a]pyrazin-8-yl)amino)phenyl)pyrrolidin-2-one], the IC90 is reported as 0.12 µM. Compound `COc1ccc(-c2cnc3c(Nc4ccc(NC(C)=O)cc4)nccn23)cc1` [Example 15, N-[4-[[3-(4-methoxyphenyl)imidazo[1,2-a]pyrazin-8-yl]amino]phenyl]acetamide] has an IC90 of 0.6 µM. `COc1ccc(-c2cnc3c(Nc4ccc(S(=O)(=O)NCCOCCN)c(C)c4)nccn23)c(F)c1F` [Example 100, N-(2-(2-aminoethoxy)ethyl)-4-((3-(2,3-difluoro-4-methoxyphenyl)imidazo[1,2-a]pyrazin-8-yl)amino)-2-methylbenzenesulfonamide hydrochloride] showed an IC90 of 0.12 µM. `CCc1cc(Nc2nccn3c(-c4ccc(OC)c(F)c4F)cnc23)ccc1N1CCC(CN)CC1` [Example 114, N-(4-(4-(aminomethyl)piperidin-1-yl)-3-ethylphenyl)-3-(2,3-difluoro-4-methoxyphenyl) imidazo [1,2-a]pyrazin-8-amine hydrochloride] gave an IC90 of 0.81 µM. `CN=S(C)(=O)c1ccc(Nc2nccn3c(-c4ccc(OC)c(F)c4F)cnc23)cc1` (stereo not shown) [Example 69, 3-(2,3-difluoro-4-methoxyphenyl)-N-(4-(N,S-dimethylsulfonimidoyl)phenyl)imidazo[1,2-a]pyrazin-8-amine] was tested, and the IC90 was 0.2 µM. Compound `CN=S(=O)(c1ccc(Nc2nccn3c(-c4ccc(OC)c(F)c4F)cnc23)cc1C)C1CCN(C(=O)[C@@H]2C[C@@H](O)CN2)CC1` (stereo partly drawn) [Example 73, (4-(4-((3-(2,3-difluoro-4-methoxyphenyl)imidazo[1,2-a]pyrazin-8-yl)amino)-N,2-dimethylphenylsulfonimidoyl)piperidin-1-yl)((2S,4R)-4-hydroxypyrrolidin-2-yl)methanone] has an IC90 of 0.33 µM. In the case of `CN=S(C)(=O)c1ccc(Nc2nccn3c(-c4ccc(OC)c(F)c4F)cnc23)cc1Cl` (stereo not shown) [Example 23, N-[3-chloro-4-(N,S-dimethylsulfonimidoyl)phenyl]-3-(2,3-difluoro-4-methoxy-phenyl)imidazo[1,2-a]pyrazin-8-amine], the IC90 is reported as 0.11 µM. `CCc1cc(Nc2nccn3c(-c4ccc(OC)c(F)c4F)cnc23)ccc1S(=O)(=O)N1CCN(C(=O)C[N+](C)(C)C)CC1` [Example 110, 2-(4-((4-((3-(2,3-difluoro-4-methoxyphenyl)imidazo[1,2-a]pyrazin-8-yl)amino)-2-ethylphenyl)sulfonyl)piperazin-1-yl)-N,N,N-trimethyl-2-oxoethan-1-aminium iodide] showed an IC90 of 0.33 µM. `CCc1cc(Nc2nccn3c(-c4ccc(OC)c(F)c4F)cnc23)ccc1S(=O)(=O)N1CCN(C(=O)C2(O)CCNCC2)CC1` [Example 109, (4-((4-((3-(2,3-difluoro-4-methoxyphenyl)imidazo [1,2-alpyrazin-8-yl)amino)-2-ethylphenyl)sulfonyl)piperazin-1-yl)(4-hydroxypiperidin-4-yl)methanonbydrochloride] gave an IC90 of 0.64 µM. In the case of `COc1ccc(-c2cnc3c(Nc4ccc(S(=O)(=O)N5CCN(CCCN(C)C)CC5)c(C)c4)nccn23)c(F)c1F` [Example 98], the IC90 is reported as 0.29 µM. `CCc1cc(Nc2nccn3c(-c4ccc(OC)c(F)c4F)cnc23)ccc1S(=O)(=O)N1CCN(C(=O)CN(C)C)CC1` [Example 104, 1-(4-((4-((3-(2,3-difluoro-4-methoxyphenyl)imidazo[1,2-a]pyrazin-8-yl)amino)-2-ethylphenyl)sulfonyl)piperazin-1-yl)-2-(dimethylamino)ethan-1-one] was tested, and the IC90 was 0.34 µM. With `CCc1cc(Nc2nccn3c(-c4ccc(OC)c(F)c4F)cnc23)ccc1S(=O)(=O)N1CCN(C(=O)[C@@H]2CCN(C(=O)[C@@H]3C[C@@H](O)CN3)C2)CC1` [Example 111, (4-((4-((3-(2,3-difluoro-4-methoxyphenyl)imidazo[1,2-a]pyrazin-s-yl)amino)-2-ethylphenyl)sulfonyl)piperazin-1-yl)((R)-1-((2S,4R)-4-hydroxypyrrolidine-2-carbonyl)pyrrolidin-3-yl)methanone hydrochloride] the IC90 was 0.87 µM.

Same assay, conditions: Acinetobacter baumannii, ATCC17961, 16 h, read-out: AB ATCC 17961 IC90 (uM)
`COc1ccc(-c2cnc3c(Nc4ccc(N5CCC(CN)CC5)cc4)nccn23)c(F)c1F` [Example 112, N-(4-(4-(aminomethyl)piperidin-1-yl)phenyl)-3-(2,3-difluoro-4-methoxyphenyl)imidazo[1,2-a]pyrazin-8-amine hydrochloride] showed an IC90 of 0.56 µM. `CCc1cc(Nc2nccn3c(-c4ccc(OC)c(F)c4F)cnc23)ccc1S(C)(=O)=NCCCN` (stereo not shown) [Example 70, N-[4-[N-(3-aminopropyl)-S-methyl-sulfonimidoyl]-3-ethyl-phenyl]-3-(2,3-difluoro-4-methoxy-phenyl)imidazo[1,2-a]pyrazin-8-amine; formic acid] gave an IC90 of 0.19 µM.
